Laboratory results published in patent US7105572B2, “Stable emulsion compositions” (Takeda Pharmaceutical Company Limited, priority 2000, dated 2006).

Assays:
[1] = test system: NO production by RAW264.7 cell; assay: NO production-inhibiting effect in RAW264.7 cells stimulated with LPS and interferon-gamma; assay type: cell-based, mouse; details: LPS 5 ng/ml + interferon-gamma 1 U/ml, nitrite ion in culture supernatant, compounds 1 and 3: minimum and maximum of 7 and 9 tests
Experimental: Mouse macrophage cell line RAW264.7 was used as an iNOS-inducible cell and a test compound was examined for its % inhibition of NO production. The test compound was dissolved at the concentration of 10 mM in N,N-dimethylformamide and diluted with an RPMI-1640 medium at the concentration of 0.1 mM. The concentration was further adjusted using the medium, so that a final concentration ranging from 10 μM to 10 nM could be obtained by a 10-fold serial dilution, and the test compound was added to a culture medium. […] at 5×10^5/ml with 10% inactivated fetal calf serum in an RPMI-1640 medium and inoculated to a 96-well plate at 1×10^5 cells/0.2 ml per well. After incubating at 37° C. under an atmosphere of 5% CO2/95% air overnight, the test compound adjusted as described above was added and then LPS and interferon-gamma were added at the final concentrations of 5 ng/ml and 1 U/ml, respectively. […] The nitrite ion concentration was determined by adding 25 μl of 20 μg/ml of 2,3-diaminonaphthalene (DAN) to 50 μl of the culture supernatant, followed by incubating at room temperature for 10 minutes, followed by adding 25 μl of 0.5 N NaOH, followed by determining a fluorescence at 450 nm (excitation wavelength: 365 nm). […]

[2] = test system: nitric oxide concentration (NOx) in blood; assay: Effect on increase of nitric oxide concentration (NOx) in blood of LPS-treated mice; assay type: in vivo, BALB/c mice; details: 30 mg/kg orally, 1 hour before LPS 10 mg/kg i.p.; serum 6 hours after LPS; vs control group
[3] = test system: IL-1α; assay: Effect on increase of cytokine concentration in blood of LPS-treated mice: IL-1α; assay type: in vivo, BALB/c mice; details: 30 mg/kg orally, 1 hour before LPS 10 mg/kg i.p.; serum 6 hours after LPS
Experimental: (§1) As a result of a defense mechanism against an infection and the like or an immune abnormality, various cytokines are produced in vivo. Accordingly, an experimental animal was used to examine the effect of a test compound on the increase cytokine concentration in blood.
(§2) Female BALB/c mice (6 weeks old) were purchased and acclimatized for 1 week and assigned to the groups in each of which 6 to 8 animals were included. In a treatment group, 30 mg/kg of a test compound suspended in a 0.5% aqueous methyl cellulose solution was given orally. In a control group, the vehicle was given similarly. After 1 hour, LPS (10 mg/kg) was given intraperitoneally to each animal in the treatment and control groups, and the blood was taken 1 hour after the LPS administration and examined for concentrations of TNF-α in the serum. IL-1α, IL-1β and IL-6 concentrations were determined using the serum from the blood taken 6 hours after the LPS administration. Each cytokine was determined using an assay kit manufactured by Amersham.

[4] = test system: TNF-α; assay: Effect on increase of cytokine concentration in blood of LPS-treated mice: TNF-α; assay type: in vivo, BALB/c mice; details: 30 mg/kg orally, 1 hour before LPS 10 mg/kg i.p.; serum 1 hour after LPS
Experimental: as §1, §2

[5] = test system: IL-1β; assay: Effect on increase of cytokine concentration in blood of LPS-treated mice: IL-1β; assay type: in vivo, BALB/c mice; details: 30 mg/kg orally, 1 hour before LPS 10 mg/kg i.p.; serum 6 hours after LPS
Experimental: as §1, §2

[6] = test system: IL-6; assay: Effect on increase of cytokine concentration in blood of LPS-treated mice: IL-6; assay type: in vivo, BALB/c mice; details: 30 mg/kg orally, 1 hour before LPS 10 mg/kg i.p.; serum 6 hours after LPS
Experimental: as §1, §2

## CCOC(=O)C1=CCCCC1S(=O)(=O)Nc1ccc(F)cc1F (stereo not drawn) [Compound 20, d-ethyl 6-[N-(2,4-difluorophenyl)sulfamoyl]-1-cyclohexene-1-carboxylate]
[1]
  IC50: 0.005 µM

## CCOC(=O)C1=CCCCC1S(=O)(=O)Nc1ccc(F)cc1F (centres unmarked) [Compound 3, ethyl 6-[N-(2,4-difluorophenyl)sulfamoyl]-1-cyclohexene-1-carboxylate]
[2]
  NOx inhibition (%) in blood: 90%

## CCOC(=O)C1=CCCCC1S(=O)(=O)Nc1ccc(Cl)cc1F (centres unmarked) [Compound 1, ethyl 6-[N-(4-chloro-2-fluorophenyl)sulfamoyl]-1-cyclohexene-1-carboxylate]
[3]
  cytokine inhibition (%) in blood IL-1α: 97%
[2]
  NOx inhibition (%) in blood: 76%
[4]
  cytokine inhibition (%) in blood TNF-α: 98%
[5]
  cytokine inhibition (%) in blood IL-1β: 73%
[6]
  cytokine inhibition (%) in blood IL-6: 89%

## CCOC(=O)C1=CCCCC1S(=O)(=O)Nc1cccc(F)c1 (centres unmarked) [Compound 11, ethyl 6-[N-(3-fluorophenyl)sulfamoyl]-1-cyclohexene-1-carboxylate]
[1]; Mus musculus
  IC50: 0.31 µM
